Laboratory results taken from patent publication US20040156869A1, “2-substituted quinazolin-4-ylamine analogues” (Neurogen Corporation, priority 2002, published 2004).

What follows are compounds tested against human capsaicin receptor (VR1) (Homo sapiens, UniProt Q8NER1) (assay: Capsaicin receptor binding assay ([3H]RTX competition, VR1-transfected HEK293 membranes)).
human capsaicin receptor (VR1), sequence (Q8NER1 whole entry): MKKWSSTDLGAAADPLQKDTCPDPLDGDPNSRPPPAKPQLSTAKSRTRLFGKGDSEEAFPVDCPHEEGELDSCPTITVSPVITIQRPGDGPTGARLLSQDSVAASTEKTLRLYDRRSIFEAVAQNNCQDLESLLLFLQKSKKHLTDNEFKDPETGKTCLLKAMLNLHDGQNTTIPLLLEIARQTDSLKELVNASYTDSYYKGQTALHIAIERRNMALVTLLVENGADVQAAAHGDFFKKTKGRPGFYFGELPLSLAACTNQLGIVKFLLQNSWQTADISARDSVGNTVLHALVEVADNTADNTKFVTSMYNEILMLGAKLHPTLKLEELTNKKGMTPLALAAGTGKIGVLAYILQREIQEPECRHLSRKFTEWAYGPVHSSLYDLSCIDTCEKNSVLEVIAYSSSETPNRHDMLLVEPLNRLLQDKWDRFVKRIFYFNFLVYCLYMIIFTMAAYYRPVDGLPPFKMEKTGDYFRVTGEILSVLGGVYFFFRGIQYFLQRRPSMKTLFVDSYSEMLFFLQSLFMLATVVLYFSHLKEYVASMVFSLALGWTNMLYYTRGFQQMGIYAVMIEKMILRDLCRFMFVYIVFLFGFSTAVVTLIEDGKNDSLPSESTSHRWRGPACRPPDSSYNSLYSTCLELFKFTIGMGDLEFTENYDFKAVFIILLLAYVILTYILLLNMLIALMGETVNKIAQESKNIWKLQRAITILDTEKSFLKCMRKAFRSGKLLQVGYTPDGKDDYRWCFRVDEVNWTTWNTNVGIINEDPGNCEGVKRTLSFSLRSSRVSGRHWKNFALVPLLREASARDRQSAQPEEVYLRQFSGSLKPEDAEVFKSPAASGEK

Ki, < 1000 nM:
C=CCN(CC=C)Cc1nc(Nc2ccc(C(F)(F)F)nc2)c2ccc(-c3ncccc3C(F)(F)F)cc2n1 [Compound 372, [2-Diallylaminomethyl-7-(3-trifluoromethyl-pyridin-2-yl)-quinazolin-4-yl]-(6-trifluoromethyl-pyridin-3-yl)-amine]
CCCN(CCC)Cc1nc(Nc2ccc(C(F)(F)F)nc2)c2ccc(-c3ncccc3C(F)(F)F)cc2n1 [Compound 373, [2-Dipropylaminomethyl-7-(3-trifluoromethyl-pyridin-2-yl)-quinazolin-4-yl]-(6-trifluoromethyl-pyridin-3-yl)-amine]
CCCCN(CC)Cc1nc(Nc2ccc(C(F)(F)F)nc2)c2ccc(-c3ncccc3C(F)(F)F)cc2n1 [Compound 374, [2-[(Butyl-ethyl-amino)-methyl]-7-(3-trifluoromethyl-pyridin-2-yl)-quinazolin-4-yl]-(6-trifluoromethyl-pyridin-3-yl)-amine]
CCCN(Cc1nc(Nc2ccc(C(F)(F)F)nc2)c2ccc(-c3ncccc3C(F)(F)F)cc2n1)CC1CC1 [Compound 375, [2-[(Cyclopropylmethyl-propyl-amino)-methyl]-7-(3-trifluoromethyl-pyridin-2-yl)-quinazolin-4-yl]-(6-trifluoromethyl-pyridin-3-yl)-amine]
CCCCCCN(C)Cc1nc(Nc2ccc(C(F)(F)F)nc2)c2ccc(-c3ncccc3C(F)(F)F)cc2n1 [Compound 376, [2-[(Hexyl-methyl-ainino)-methyl]-7-(3-trifluoromethyl-pyridin-2-yl)-quinazolin-4-yl]-(6-trifluoromethyl-pyridin-3-yl)-amine]
CCCCN(CCCC)Cc1nc(Nc2ccc(C(F)(F)F)nc2)c2ccc(-c3ncccc3C(F)(F)F)cc2n1 [Compound 377, [2-Dibutylaminomethyl-7-(3-trifluoromethyl-pyridin-2-yl)-quinazolin-4-yl]-(6-trifluoromethyl-pyridin-3-yl)-amine]
CC(C)N(C)Cc1nc(Nc2ccc(C(F)(F)F)nc2)c2ccc(-c3ncccc3C(F)(F)F)cc2n1 [Compound 378, [2-[(Isopropyl-methyl-amino)-methyl]-7-(3-trifluoromethyl-pyridin-2-yl)-quinazolin-4-yl]-(6-trifluoromethyl-pyridin-3-yl)-amine]
CC1CCCCN1Cc1nc(Nc2ccc(C(F)(F)F)nc2)c2ccc(-c3ncccc3C(F)(F)F)cc2n1 (stereo not drawn) [Compound 379, [2-(2-Methyl-piperidin-1-ylmethyl)-7-(3-trifluoromethyl-pyridin-2-yl)-quinazolin-4-yl]-(6-trifluoromethyl-pyridin-3-yl)-amine]
C=C(C)CN(CC)Cc1nc(Nc2ccc(C(F)(F)F)nc2)c2ccc(-c3ncccc3C(F)(F)F)cc2n1 [Compound 380, [2-{[Ethyl-(2-methyl-allyl)-amino]-methyl}-7-(3-trifluoromethyl-pyridin-2-yl)-quinazolin-4-yl]-(6-trifluoromethyl-pyridin-3-yl)-amine]
CN(Cc1nc(Nc2ccc(C(F)(F)F)nc2)c2ccc(-c3ncccc3C(F)(F)F)cc2n1)C1CCCCC1 [Compound 381, [2-[(Cyclohexyl-methyl-amino)-methyl]-7-(3-trifluoromethyl-pyridin-2-yl)-quinazolin-4-yl]-(6-trifluoromethyl-pyridin-3-yl)-amine]
CCC1CCCCN1Cc1nc(Nc2ccc(C(F)(F)F)nc2)c2ccc(-c3ncccc3C(F)(F)F)cc2n1 (stereo not drawn) [Compound 382, [2-(2-Ethyl-piperidin-1-ylmethyl)-7-(3-trifluoromethyl-pyridin-2-yl)-quinazolin-4-yl]-(6-trifluoromethyl-pyridin-3-yl)-amine]
CCN(Cc1nc(Nc2ccc(C(F)(F)F)nc2)c2ccc(-c3ncccc3C(F)(F)F)cc2n1)C1CCCCC1 [Compound 383, [2-[(Cyclohexyl-ethyl-amino)-methyl]-7-(3-trifluoromethyl-pyridin-2-yl)-quinazolin-4-yl]-(6-trifluoromethyl-pyridin-3-yl)-amine]
COCCN(CCOC)Cc1nc(Nc2ccc(C(F)(F)F)nc2)c2ccc(-c3ncccc3C(F)(F)F)cc2n1 [Compound 384, [2-{[Bis-(2-methoxy-ethyl)-amino]-methyl}-7-(3-trifluoromethyl-pyridin-2-yl)-quinazolin-4-yl]-(6-trifluoromethyl-pyridin-3-yl)-amine]
CCCCCN(CCCCC)Cc1nc(Nc2ccc(C(F)(F)F)nc2)c2ccc(-c3ncccc3C(F)(F)F)cc2n1 [Compound 385, [2-Dipentylaminomethyl-7-(3-trifluoromethyl-pyridin-2-yl)-quinazolin-4-yl]-(6-trifluoromethyl-pyridin-3-yl)-amine]
CCCCCCN(CCCCCC)Cc1nc(Nc2ccc(C(F)(F)F)nc2)c2ccc(-c3ncccc3C(F)(F)F)cc2n1 [Compound 386, [2-Dihexylaminomethyl-7-(3-trifluoromethyl-pyridin-2-yl)-quinazolin-4-yl]-(6-trifluoromethyl-pyridin-3-yl)-amine]
CC1CC(C)CN(Cc2nc(Nc3ccc(C(F)(F)F)nc3)c3ccc(-c4ncccc4C(F)(F)F)cc3n2)C1 (stereo not drawn) [Compound 387, [2-(3,5-Dimethyl-piperidin-1-ylmethyl)-7-(3-trifluoromethyl-pyridin-2-y)-quinazolin-4-yl]-(6-trifluoromethyl-pyridin-3-yl)-amine]
CC(c1ccccc1)N(C)CCc1nc(Nc2ccc(C(F)(F)F)cc2)c2ccc(-c3ncccc3C(F)(F)F)cc2n1 (stereo not drawn) [Compound 388, [2-{2-[Methyl-(1-phenyl-ethyl)-amino]-ethyl}-7-(3-trifluoromethyl-pyridin-2-yl)-quinazolin-4-yl]-(4-trifluoromethyl-phenyl)-amine]
CN(CCc1nc(Nc2ccc(C(F)(F)F)cc2)c2ccc(-c3ncccc3C(F)(F)F)cc2n1)C1CCc2ccccc21 (stereo not drawn) [Compound 389, [2-[2-(Indan-1-yl-methyl-amino)-ethyl]-7-(3-trifluoromethyl-pyridin-2-yl)-quinazolin-4-yl]-(4-trifluoromethyl-phenyl)-amine]
CCC(c1ccccc1)N(C)CCc1nc(Nc2ccc(C(F)(F)F)cc2)c2ccc(-c3ncccc3C(F)(F)F)cc2n1 (stereo not drawn) [Compound 390, [2-{2-[Methyl-(1-phenyl-propyl)-amino]-ethyl}-7-(3-trifluoromethyl-pyridin-2-yl)-quinazolin-4-yl]-(4-trifluoromethyl-phenyl)-amine]
CC1c2ccccc2CCN1CCc1nc(Nc2ccc(C(F)(F)F)cc2)c2ccc(-c3ncccc3C(F)(F)F)cc2n1 (stereo not drawn) [Compound 391, [2-[2-(1-Methyl-3,4-dihydro-1H-isoquinolin-2-yl)-ethyl]-7-(3-trifluoromethyl-pyridin-2-yl)-quinazolin-4-yl]-(4-trifluoromethyl-phenyl)-amine]
CN(CCc1nc(Nc2ccc(C(F)(F)F)cc2)c2ccc(-c3ncccc3C(F)(F)F)cc2n1)Cc1ccccc1 [Compound 392, [2-[2-(Benzyl-methyl-amino)-ethyl]-7-(3-trifluoromethyl-pyridin-2-yl)-quinazolin-4-yl]-(4-trifluoromethyl-phenyl)-amine]
